Literature values in paper PMC9387934, “Randomized single oral dose phase 1 study of safety, tolerability, and pharmacokinetics of Iminosugar UV-4 Hydrochloride (UV-4B) in healthy subjects” (PLoS Neglected Tropical Diseases, 2022).
Where a name gives a salt, the structure may show the parent alone. Read-outs that look alike come from different tables or passages of the source.

Experiments:
DENV-2 S221 = conditions: ref Investigator’s Brochure (IB), cited from earlier work
[1] = set-up: method as in Investigator’s Brochure (IB); conditions: mice, up to 250 mg/kg TID (750 mg/kg/day); ref Investigator’s Brochure (IB); cited from earlier work
[2] = compared with UV-4; cited from earlier work
[3] = mouse, cited from earlier work
[4] = dog; cited from earlier work
[5] = test system: human ether-a-go-go-related gene potassium channel; conditions: at UV-4 concentration more than 20-fold higher than expected at the planned ceiling dose in humans; ref Investigator’s Brochure (IB); cited from earlier work
[6] = cited from earlier work
[7] = test system: cultured human lymphocytes; conditions: in vitro; ref Investigator’s Brochure (IB); cited from earlier work
[8] = set-up: method as in Investigator’s Brochure (IB); conditions: rat, average; ref Investigator’s Brochure (IB); cited from earlier work
CYP2C19 = test system: CYP2C19; set-up: method as in Investigator’s Brochure (IB); conditions: in vitro; ref Investigator’s Brochure (IB); cited from earlier work
CYP2D6 = test system: CYP2D6; set-up: method as in Investigator’s Brochure (IB); conditions: in vitro; ref Investigator’s Brochure (IB); cited from earlier work
CYP3A4/5 = test system: CYP3A4/5; set-up: method as in Investigator’s Brochure (IB); conditions: ref Investigator’s Brochure (IB), cited from earlier work
CYP2B6 = test system: CYP2B6; set-up: method as in Investigator’s Brochure (IB); conditions: ref Investigator’s Brochure (IB), cited from earlier work
all ten CYPs = test system: all ten CYPs; set-up: method as in Investigator’s Brochure (IB); conditions: all ten CYPs at the tested conditions; ref Investigator’s Brochure (IB); cited from earlier work
[9] = oral, first dose 1 hour before infection, TID for 7 days
[10] = dog, 2 TID mg/kg, Day 28 (Recovery)
[11] = dog, 10 TID mg/kg (NOAEL), Day 28 (Recovery)
[12] = dogs, 10 mg/kg/dose TID, ref Investigator’s Brochure (IB)

In the case of `COCCCCCCCCCN1C[C@H](O)[C@@H](O)[C@H](O)[C@H]1CO` [UV-4B, N-(9’-methoxynonyl)-1-deoxynojirimycin hydrochloride], the 50% effective dose (DENV-2 S221; [9]) is given as 5 mg/kg TID, the “Minimal effective dose (90% survival rate)” value (DENV-2 S221; [9]) is given as 10 mg/kg TID and the 50% effective dose (DENV-2 S221; step-wise minimal effective dose and therapeutic window studies, start 24 or 48 hours after infection) is given as 20 mg/kg TID. The CNS assessments [1] was “no adverse treatment-related effects”, the “Solubility of the hydrochloride salt” value [2] was “higher solubility” and the “Dose with lymphoid depletion in thymus” value ([3]; F) was ≥ 25 mg/kg/dose, TID. The “Dose with lymphoid depletion in thymus” value ([3]; M) was 100 mg/kg/dose, TID, the “Dose with neutrophilic infiltration and erosion/ulcer in rectum” value ([3]; females (printed F100))) was 100 mg/kg/dose, TID and the “Neurologic Effects” value ([3]; functional observational battery) was “no effect in FOB”. The “Dose with decrease in thymus weight” value ([3]; printed (men)) was ≥ 25 mg/kg/dose, TID, the “Dose with increased AST” value ([3]; printed (men)) was ≥ 600 mg/kg/dose, TID and the “Dose with decrease in thymus weight” value ([3]; women [sic]) was 100 mg/kg/dose, TID. For the same compound, the “Dose with increased AST” value ([3]; women [sic]) was 600 mg/kg/dose, TID, the “Cardiovascular Effects” value [3] was “none observed” and the “Dose with decrease in red cell mass, RBC count, HGB, and HCT” value [3] was 100 mg/kg/dose, TID. The “Dose with fecal abnormalities” value [3] was > 250 mg/kg/dose, TID, the “Dose with decreased PLTs” value [4] was 2 mg/kg/dose, TID and the “Dose with decreased arterial pulse pressure” value [4] was > 50 mg/kg. For the same compound, the “Dose with decreased reticulocytes” value [4] was 10 mg/kg/dose, TID, the “Dose with decreased systolic pressure” value [4] was > 50 mg/kg and the “Dose with decreased thymus weight” value [4] was ≥ 2 mg/kg/dose, TID. The “Dose with increased ALT” value [4] was ≥ 2 mg/kg/dose, TID, the “Dose with increased AST” value [4] was ≥ 2 mg/kg/dose, TID and the “Dose with increased aPTT” value [4] was ≥ 10 mg/kg/dose, TID. For the same compound, the “Dose with increased diastolic pressure” value [4] was > 50 mg/kg, the “Dose with inverted AST/ALT ratio” value [4] was 10 mg/kg/dose, TID and the “Dose with lymphocyte depletion in thymus, spleen, lymph nodes, and GALT” value [4] was ≥ 2 mg/kg/dose, TID. For the same compound, the “Dose with nonformed feces” value [4] was ≥ 10 mg/kg/dose, TID, the “Dose with salivation and vomitus” value [4] was 60 mg/kg/dose, TID and the “Neurologic Effects” value [4] was “none observed”. The “Inhibition of hERG potassium channel” value [5] was “did not inhibit”, the AST [6, 10] was “−” and the Decreased thymus weight [6, 10] was “−”. The Lymphocyte depletion [6, 10] was “−”, the PLT [6, 10] was “−” and the Decreased thymus weight ([6]; dog, 10 TID mg/kg (NOAEL), Day 28 (Recovery), females) was “−(F)”. For the same compound, the Decreased thymus weight ([6]; dog, 10 TID mg/kg (NOAEL), Day 28 (Recovery), males) was “↓(M)”, the ALT [6, 11] was “−” and the AST [6, 11] was “−”. The “Inverted AST/ALT ratio” value [6, 11] was “−”, the “Lymphoid depletion in thymus, spleen, lymph nodes and GALT” value [6, 11] was “−” and the Nonformed feces [6, 11] was “−”. The PLT [6, 11] was “−”, the Reticulocyte count [6, 11] was “−” and the aPTT [6, 11] was “−”. The “Increase in ALT” value [6, 12] was “up to 2.9 x BL”, the “Increase in AST” value [6, 12] was “up to 9.7 x BL” and the “Increase in aPTT” value [6, 12] was 2.2 x BL. The NOAEL ([6]; dogs, 14 days of TID administration, ref Investigator’s Brochure (IB)) was 30 mg/kg/day, the “No observed effect level (NOEL)” value ([6]; dogs, 14 days, lowest dose exceeded the NOEL, ref Investigator’s Brochure (IB)) was < 2 mg/kg/dose TID and the NOAEL ([6]; dogs, 14 days, ref Investigator’s Brochure (IB)) was 10 mg/kg/dose TID. The “Average (male and female) AUC(0-8)” value ([6]; dogs, end of dosing phase, at NOAEL 30 mg/kg/day, ref Investigator’s Brochure (IB)) was 10,940 ng•h/mL and the “Clastogenicity, chromosomal aberration in cultured human lymphocytes” value [7] was “not found to be mutagenic or clastogenic”.
In the case of `COCCCCCCCCCN1C[C@H](O)[C@@H](O)[C@H](O)[C@H]1CO` [UV-4, N-(9’-methoxynonyl)-1-deoxynojirimycin], the Bioavailability [8] is listed as ≥ 99%, the “Direct inhibition of CYP2C19” value (CYP2C19) is listed as “No clinically relevant direct inhibition” and the “Direct inhibition of CYP2D6” value (CYP2D6) is listed as “No clinically relevant direct inhibition”. For the same compound, the “Direct inhibition of CYP3A4/5” value (CYP3A4/5; midazolam 1’-hydroxylase) was “No clinically relevant direct inhibition”, the “Direct inhibition of CYP3A4/5” value (CYP3A4/5; testosterone 6β-hydroxylase) was “weak direct inhibition” and the “Estimated IC50” value (CYP3A4/5; testosterone 6β-hydroxylase) was > 191 µg/mL. The IC50 (CYP3A4/5; testosterone 6β-hydroxylase, read-out: Estimated IC50) was > 600 µM, the “Estimated IC50” value (CYP2B6; CYP2B6) was > 191 µg/mL and the IC50 (CYP2B6; CYP2B6, read-out: Estimated IC50) was > 600 µM. For the same compound, the “Direct inhibition of CYP2B6” value (CYP2B6; in vitro) was “weak direct inhibition” and the “Potential for metabolism-dependent inhibition” value (all ten CYPs) was “no significant potential”.
